Reference: US10301317B2, “Inhibitors of ERK and methods of use” (Kura Oncology, Inc., priority 2013, dated 2019)
pIC50: −log10 of the molar value.

tested on: phospho-p90 RSK (RSK1 Thr359/Ser363) in A375 (Braf V600E) cells; assay: Phospho-p90 RSK ELISA using A375 (Braf V600E) cells; assay type: cell-based; conditions: Homo sapiens, A-375, 2 hours compound treatment, read-out: Cellular Phospho-p90RSK IC50
Protocol: In preparation for the assay, an ELISA plate with the pre-coated goat anti-mouse antibody (Thermo Scientific) was treated with a mouse anti-human RSK1 antibody (monoclonal, Invitrogen) at 1:800 dilution (150 ng/well) in PBS, and the plate was placed on a plate shaker at 4° C. overnight. […] After two […] of the compound treatment, the supernatant was removed from the cell plate, and cells were lysed in 100 μl per well of cell lysis buffer (Cell Signaling Technologies) containing phosphatase and protease inhibitors (Cell Signaling Technologies) on a plate shaker at 4° C. for 20 minutes. The ELISA plate was washed four times with ELISA wash buffer (Thermo Scientific) prior to addition of 100 μL cell lysate. The lysate was incubated on the ELISA plate with gentle shaking at room temperature for 2 hours. The contents of the wells were removed, and the ELISA plate was washed four times with wash buffer, and incubated with 100 μL per well of anti-phospho-RSK1 (Thr359/Ser363) rabbit monoclonal antibody (Millipore) at dilution of 1:1000 in StartingBlock buffer (Thermo Scientific) on a plate shaker at room temperature for 1 hour. The contents of the wells were removed, the ELISA plate was washed four times with wash buffer, and was incubated with 100 μL per well of goat anti-rabbit HRP (Thermo Scientific) at dilution of 1:3000 in StartingBlock buffer (Thermo Scientific) on a plate shaker at room temperature for 1 hour. The contents of the wells were removed, the ELISA plate was washed four times with wash buffer, and then incubated with 100 μL per well of TMB substrate solution (Thermo Scientific) on a plate shaker at room temperature for 20 minutes. Finally, 100 μL of TMB stop solution (Thermo Scientific) was added to each well and the absorbance is measured at 450 nm on a Tecan plate reader.

pIC50 | Compound
< 6.00 | Cc1cc(-c2n[nH]c3cc4c(cc23)CN([C@@H]2CCN(CC3CCCC3)C2)C(=O)N4)ccn1 [Example 206]
6.00 to 6.60 | Cc1cc(-c2n[nH]c3cc4c(cc23)CN([C@@H]2CCN(CCC(C)C)C2)C(=O)N4)ccn1 [Example 207]
< 6.00 | Cc1cc(-c2n[nH]c3cc4c(cc23)CN(CC2CCCN(Cc3ccccc3)C2)C(=O)N4)ccn1 (stereo not shown) [Example 208]
6.00 to 6.60 | Cc1cc(-c2n[nH]c3cc4c(cc23)CN([C@@H]2CCCN(CC(=O)C(C)C)C2)C(=O)N4)ccn1 [Example 209]
< 6.00 | Cc1cc(-c2n[nH]c3cc4c(cc23)CN([C@@H]2CCCN(C3CCC3)C2)C(=O)N4)ccn1 [Example 210]
6.00 to 6.60 | Cc1cc(-c2n[nH]c3cc4c(cc23)CN([C@@H]2CCCN(C3CCCC3)C2)C(=O)N4)ccn1 [Example 215]
≥ 6.60 | Cc1cc(-c2n[nH]c3cc4c(cc23)CN(Cc2ccccc2Cl)C(=O)N4)ccn1 [Example 217]
6.00 to 6.60 | Cc1cc(-c2n[nH]c3cc4c(cc23)CN(Cc2ccccc2C(F)(F)F)C(=O)N4)ccn1 [Example 218]
6.00 to 6.60 | Cc1cc(-c2n[nH]c3cc4c(cc23)CN(C2CCOC(C)(C)C2)C(=O)N4)ccn1 (stereo not shown) [Example 219]
≥ 6.60 | Cc1cc(-c2n[nH]c3cc4c(cc23)CN(CCC2CCOCC2)C(=O)N4)ccn1 [Example 220]
6.00 to 6.60 | CC(C)c1cc(-c2n[nH]c3cc4c(cc23)CN(Cc2cccc(Cl)c2)C(=O)N4)ccn1 [Example 230]
6.00 to 6.60 | Cc1cc(-c2n[nH]c3cc4c(cc23)CN(C2CCC(=O)N(Cc3ccccc3)C2)C(=O)N4)ccn1 (stereo not shown) [Example 232]
≥ 6.60 | Cc1cc(-c2n[nH]c3cc4c(cc23)CN(Cc2ccc(C(F)(F)F)cc2)C(=O)N4)cc(C)n1 [Example 233]
< 6.00 | Cn1nccc1-c1n[nH]c2cc3c(cc12)CN(Cc1cccc(Cl)c1)C(=O)N3 [Example 235]
< 6.00 | Cc1cc(-c2n[nH]c3cc4c(cc23)CN([C@@H]2CCCN(CC(O)C(C)(C)C)C2)C(=O)N4)ccn1 (stereo partly shown) [Example 236]
≥ 6.60 | Cc1cc(-c2n[nH]c3cc4c(cc23)CN([C@@H]2CCCN(c3cccc(C)n3)C2)C(=O)N4)ccn1 [Example 238]
≥ 6.60 | Cc1cc(-c2n[nH]c3cc4c(cc23)CN(Cc2nc(C)cs2)C(=O)N4)ccn1 [Example 246]
< 6.00 | Cc1cc(-c2n[nH]c3cc4c(cc23)CN([C@@H]2CCCN(C(C)C)C2)C(=O)N4)ccn1 [Example 247]
≥ 6.60 | Cc1cc(-c2n[nH]c3cc4c(cc23)CN([C@@H]2CCN(c3cccc(Cl)c3)C2)C(=O)N4)ccn1 [Example 249]

Further lines, the compound ahead of its results:

Compound | pIC50
COc1ncc(-c2n[nH]c3cc4[nH]c(=O)c(C(C)c5cccc(Cl)c5)cc4cc23)cn1 (stereo not shown) [Example 129] | 6.00 to 6.60
Cc1ccc(CN2CCC[C@@H](N3Cc4cc5c(-c6ccnc(C)c6)n[nH]c5cc4NC3=O)C2)cn1 [Example 131] | < 6.00
Cc1cc(-c2n[nH]c3cc4c(cc23)CN([C@@H]2CCCN(Cc3cnn(C)c3)C2)C(=O)N4)ccn1 [Example 133] | < 6.00
Cc1cc(-c2n[nH]c3cc4c(cc23)CN([C@@H]2CCCN(CC3CCC3)C2)C(=O)N4)ccn1 [Example 137] | 6.00 to 6.60
Cc1cc(-c2n[nH]c3cc4c(cc23)CN([C@@H]2CCCN(CC3CC5CCC3C5)C2)C(=O)N4)ccn1 (stereo partly shown) [Example 142] | ≥ 6.60
Cc1cc(-c2n[nH]c3cc4c(cc23)CN([C@@H]2CCCN(CCc3ccccc3)C2)C(=O)N4)ccn1 [Example 145] | 6.00 to 6.60
COc1ncccc1CN1CCC[C@@H](N2Cc3cc4c(-c5ccnc(C)c5)n[nH]c4cc3NC2=O)C1 [Example 150] | ≥ 6.60
Cc1cc(-c2n[nH]c3cc4c(cc23)CN([C@@H]2CCCN(CCC3CC3)C2)C(=O)N4)ccn1 [Example 155] | 6.00 to 6.60
Cc1cc(-c2n[nH]c3cc4c(cc23)CN(C2CCN(CCc3ccccc3)CC2)C(=O)N4)ccn1 [Example 157] | < 6.00
Cc1cc(-c2n[nH]c3cc4c(cc23)CN([C@@H]2CCCN(Cc3ccc(Cl)cc3)C2)C(=O)N4)ccn1 [Example 159] | 6.00 to 6.60
Cc1cc(-c2n[nH]c3cc4[nH]c(=O)c(C(C)C5CCCCC5)cc4cc23)ccn1 (stereo not shown) [Example 160] | < 6.00
Cc1cc(-c2n[nH]c3cc4c(cc23)CN([C@@H]2CCCN(CCc3cccc(Cl)c3)C2)C(=O)N4)ccn1 [Example 164] | < 6.00
Cc1cc(-c2n[nH]c3cc4c(cc23)CN([C@@H]2CCCN(Cc3cncnc3)C2)C(=O)N4)ccn1 [Example 166] | < 6.00
Cc1cc(-c2n[nH]c3cc4c(cc23)CN([C@@H]2CCCN(CCc3ccc(F)cc3)C2)C(=O)N4)ccn1 [Example 167] | < 6.00
Cc1cc(-c2n[nH]c3cc4c(cc23)CN([C@@H]2CCCN(Cc3ncccc3C)C2)C(=O)N4)ccn1 [Example 168] | 6.00 to 6.60
Cc1cc(-c2n[nH]c3cc4c(cc23)CN([C@@H]2CCCN(CCC(C)C)C2)C(=O)N4)ccn1 [Example 169] | 6.00 to 6.60
Cc1cc(-c2n[nH]c3cc4c(cc23)CN([C@@H]2CCCN(Cc3cccnc3C)C2)C(=O)N4)ccn1 [Example 170] | 6.00 to 6.60

Compound | pIC50
Cc1cc(-c2n[nH]c3cc4c(cc23)CN([C@@H]2CCCN(Cc3ccccn3)C2)C(=O)N4)ccn1 [Example 171] | < 6.00
Cc1cc(-c2n[nH]c3cc4c(cc23)CN([C@@H]2CCCN(C(=O)c3ccccc3)C2)C(=O)N4)ccn1 [Example 172] | 6.00 to 6.60
Cc1cc(-c2n[nH]c3cc4c(cc23)CN(CCNCc2ccc(F)c(Cl)c2)C(=O)N4)ccn1 [Example 173] | < 6.00
Cc1cc(-c2n[nH]c3cc4c(cc23)CN(CCNCc2ccc(F)cc2)C(=O)N4)ccn1 [Example 175] | 6.00 to 6.60
Cc1cc(-c2n[nH]c3cc4c(cc23)CN(CCNCc2cccc(Cl)c2)C(=O)N4)ccn1 [Example 176] | 6.00 to 6.60
Cc1cc(-c2n[nH]c3cc4c(cc23)CN([C@@H]2CCC[C@H](NCc3ccccc3)C2)C(=O)N4)ccn1 [Example 177] | 6.00 to 6.60
Cc1cc(-c2n[nH]c3cc4c(cc23)CN([C@@H]2CCCN(CC3(C)CC3)C2)C(=O)N4)ccn1 [Example 182] | 6.00 to 6.60
Cc1cc(-c2n[nH]c3cc4c(cc23)CN([C@@H]2CCCN(Cc3cnccc3C)C2)C(=O)N4)ccn1 [Example 183] | 6.00 to 6.60
Cc1cc(-c2n[nH]c3cc4c(cc23)CN([C@@H]2CCCN(Cc3cc(C(C)(C)C)no3)C2)C(=O)N4)ccn1 [Example 186] | 6.00 to 6.60
Cc1cc(-c2n[nH]c3cc4c(cc23)CN([C@@H]2CCCN(Cc3cc(C5CC5)on3)C2)C(=O)N4)ccn1 [Example 188] | ≥ 6.60
Cc1cc(-c2n[nH]c3cc4c(cc23)CN(C2CN(CCC3CC3)C2)C(=O)N4)ccn1 [Example 189] | < 6.00
Cc1cc(-c2n[nH]c3cc4c(cc23)CN(C2CN(Cc3ccccc3)C2)C(=O)N4)ccn1 [Example 191] | 6.00 to 6.60
Cc1cc(-c2n[nH]c3cc4c(cc23)CN(C2CN(CCc3ccccc3)C2)C(=O)N4)ccn1 [Example 192] | 6.00 to 6.60
Cc1cc(-c2n[nH]c3cc4c(cc23)CN([C@@H]2CCCN(C3CCCCC3)C2)C(=O)N4)ccn1 [Example 194] | 6.00 to 6.60
Cc1cc(-c2n[nH]c3cc4c(cc23)CN([C@@H]2CCCN(Cc3sc(C)nc3C)C2)C(=O)N4)ccn1 [Example 195] | 6.00 to 6.60
Cc1cc(-c2n[nH]c3cc4c(cc23)CN([C@@H]2CCCN(CC(=O)C(C)(C)C)C2)C(=O)N4)ccn1 [Example 203] | 6.00 to 6.60
